Assay results taken from US11337944B2, “Method of treating colorectal cancers using a PKC inhibitor” (UNIVERSITY OF SOUTH FLORIDA, priority 2016, dated 2022).
Entries after “also recorded” stand apart in the source; their conditions may differ. Where two headings read alike, the source gives them in different places.

How the values were obtained:
PKC-ζ [1] = biological target: T1, PKC-ζ (Homo sapiens, UniProt Q05513); conditions: cited from earlier work
T1 construct: harvested and whole cell extracts were prepared; endogenous in cells; host or cells: HT-29
T1 sequence (Q05513 1-592): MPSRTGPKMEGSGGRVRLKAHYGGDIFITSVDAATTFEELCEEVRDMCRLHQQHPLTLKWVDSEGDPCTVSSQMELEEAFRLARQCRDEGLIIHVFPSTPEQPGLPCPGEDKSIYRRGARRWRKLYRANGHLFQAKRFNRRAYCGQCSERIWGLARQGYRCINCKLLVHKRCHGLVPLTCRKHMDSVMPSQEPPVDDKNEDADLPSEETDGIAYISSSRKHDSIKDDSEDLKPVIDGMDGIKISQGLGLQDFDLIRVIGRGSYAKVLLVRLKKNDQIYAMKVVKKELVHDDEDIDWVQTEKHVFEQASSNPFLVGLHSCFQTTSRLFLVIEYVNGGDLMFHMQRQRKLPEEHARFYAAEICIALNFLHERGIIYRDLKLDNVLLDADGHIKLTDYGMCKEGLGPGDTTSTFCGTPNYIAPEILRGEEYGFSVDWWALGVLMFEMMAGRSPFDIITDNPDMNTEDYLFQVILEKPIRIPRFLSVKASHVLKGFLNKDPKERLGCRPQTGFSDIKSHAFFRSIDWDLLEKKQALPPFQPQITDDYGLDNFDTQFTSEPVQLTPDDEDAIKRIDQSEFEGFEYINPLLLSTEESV

PKC-ι [2] = biological target: T2, PKC-ι (Homo sapiens, UniProt P41743); conditions: cited from earlier work
T2 construct: harvested and whole cell extracts were prepared; endogenous in cells; host or cells: HT-29
T2 sequence (P41743 1-596): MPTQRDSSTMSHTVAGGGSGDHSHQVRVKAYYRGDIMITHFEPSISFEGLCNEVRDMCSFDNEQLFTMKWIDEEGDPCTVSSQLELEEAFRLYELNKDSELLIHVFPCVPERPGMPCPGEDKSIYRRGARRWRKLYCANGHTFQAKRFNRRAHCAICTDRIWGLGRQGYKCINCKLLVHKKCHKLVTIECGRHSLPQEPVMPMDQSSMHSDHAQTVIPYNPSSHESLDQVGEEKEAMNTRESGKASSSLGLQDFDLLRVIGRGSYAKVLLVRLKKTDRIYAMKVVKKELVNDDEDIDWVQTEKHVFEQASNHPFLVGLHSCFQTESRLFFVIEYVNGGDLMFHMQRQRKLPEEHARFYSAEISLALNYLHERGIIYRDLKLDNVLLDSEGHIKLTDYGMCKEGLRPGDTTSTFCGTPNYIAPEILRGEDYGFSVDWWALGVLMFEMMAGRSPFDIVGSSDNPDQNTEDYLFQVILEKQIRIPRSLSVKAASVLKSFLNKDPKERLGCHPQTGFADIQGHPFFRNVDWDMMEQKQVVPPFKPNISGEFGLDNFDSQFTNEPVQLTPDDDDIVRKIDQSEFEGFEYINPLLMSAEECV

[3] = tested on: HT-29 colon cancer cell line; experiment: HT-29 colon cancer cell proliferation, viable cell count (Tryphan blue exclusion, scepter); assay type: cell-based; conditions: for HT-29 cell proliferation at 0.25 μM / HT-29 cell proliferation at 1.5 μM: after three days of treatment; for effect on HT-29 cell proliferation with concentration: 24-72 hours, several concentrations; for IC50: HT-29, three days of treatment, read-out: decrease of growth of HT-29 cells by 50 percent (IC50)
Method: (§1) The colon cancerous cell line, HT-29 and normal colon epithelial cells, CCD18CO were obtained from American Type Tissue Culture Collection. The HT-29 cells and CCD18CO cells were subculture and maintained in T75 flasks containing McCoy's media and Eagle's Minimum Essential Media respectively, both of the flasks were supplemented with 10% FBS (Fetal Bovine Serum) and 1% antibiotics (Penicillin 10 U/ml and streptomycin 10 mg/ml). Cells were incubated at 37° C. and 5% CO2. After few days of incubation following subculture, cells were used at 70-80% confluency for the experiment.
Cells (3.0×10^4/well) were grown as monolayer on 6 wells plate. […] Cells are then washed (2 ml 2× DPBS buffer), trypsinized, resuspended in McCoy's 5A media and counted with hemocytometer, Scepter & MTT assay.
After starting treatment, viable cells were counted at each 24 hours interval using Tryphan blue exclusion assay and scepter. The data represents n=4 independent experiments.
HT-29 cells were treated with five different concentrations of DNDA for 24-72 hours. After starting treatment, viable cells were counted at each 24 hours interval using Tryphan blue exclusion assay and scepter. The data represents n=4 independent experiments.
HT-29 cells were treated with five different concentrations of ICA-1 for 24-72 hours. After starting treatment, viable cells were counted at each 24 hours interval using Tryphan blue exclusion assay and scepter. The data represents n=4 independent experiments.
HT-29 cells were treated with four different concentrations of ζ-Stat for 24-72 hours. After starting treatment, viable cells were counted at each 24 hours interval using Tryphan blue exclusion assay and scepter. The data represents n=4 independent experiments.

[4] = tested on: CCD18CO normal colorectal cells; experiment: Western blot of survival and apoptotic proteins in CCD18CO normal cells; assay type: cell-based; conditions: 7 μM, 72 hours, immunoblot
Method: (§2) CCD18CO cells were treated with 7 μM ICA-I or 7 μM ζ-Stat, respectively, for 72 hours, harvested and whole cell lysates were prepared. Equal amounts (40 μg) of protein were loaded on SDS-PAGE followed by immunoblotting for PKC-ι, PKC-ζ, Caspase-3, BCL-XL, and β-actin to see the effect of specific aPKC inhibition on survival and apoptotic proteins. Data represents n=3 independent experiments.

PKC-ζ [5] = biological target: T1, PKC-ζ; experiment: Western blot of PKC-ζ expression and phosphorylation in HT-29 cells; assay type: cell-based; conditions: HT-29, 72 hours, increasing concentrations, immunoblot
Method: (§3) Cells were cultured (9.0×10^4) in 100 mm cell culture flasks. […] Equal volume of sterile water (vehicle control) as the volume of drug was added in the control also. Treatment was continued for three consecutive days. Total cell-lysates were prepared and subjected to western blot analysis for aPKC analysis.
(§4) Because PKC-ι and PKC-ζ are homologous (84%) in terms of amino acids sequence of their catalytic domain [7], the specificity of the effect of ζ-Stat on PKC-ζ was tested by performing western blot analysis. HT-29 colorectal cancerous cells were treated with seven different concentrations of ζ-Stat for 72 hours, harvested and whole cell extracts were prepared. Equal amounts (40 μg) of protein were loaded on SDS-PAGE followed by immunoblotting for pPKC-ι(T555), PKC-ι, pPKC-ζ(T410), PKC-ζ, pAKT(S473) and β-actin to examine the effect of ζ-Stat on those protein levels. Data represents n=3 independent observations.

[6] = tested on: CCD18CO normal colon epithelial cell line; experiment: MTT assay on CCD18CO normal colon epithelial cells; assay type: cell-based
Method: as §1
To establish the efficacy of ζ-Stat as a specific inhibitor of PKC-ζ, the effect of ζ-Stat on CCD18CO normal colon epithelial cell line was tested. CCD18CO normal epithelial cell line cells were treated with four different concentrations of ζ-Stat for three consecutive days followed by incubation with MTT reagent and taking absorbance reading at each half an hour interval for three hours at 577 nm using microplate reader. The data represents n=3 independent experiments.
The percentage of inhibition of CCD18C0 cell growth was measured after three hours of MTT incubation. […] The data represents n=3 independent replicates (FIG. 19).

PKC-ι [7] = biological target: T2, PKC-ι; experiment: Western blot of PKC-ι expression and phosphorylation in HT-29 cells; assay type: cell-based; conditions: HT-29, 72 hours, increasing concentrations, immunoblot
Method: as §3, §4

[8] = tested on: HT-29 colorectal cancer cells; experiment: Western blot of survival and apoptotic proteins (Caspase-3, BCL-XL, Survivin) in HT-29 cells; assay type: cell-based; conditions: HT-29, 7 μM, 72 hours, immunoblot
Method: as §2, with “HT-29 colorectal cancer” for “CCD18CO”, “ζ-Stat” for “ζ-Stat, respectively,”, “for” for “for PKC-ι, PKC-ζ,”, “BCL-XL, Survivin” for “BCL-XL,”, “determine” for “see”, “effects” for “effect”

IC50 [3] | IC50 ([3]; Homo sapiens, 72 h) | SMILES | inhibition of PKC-ζ (PKC-ζ [1]) | inhibition of PKC-ι (PKC-ι [2]) | HT-29 cell proliferation at 0.25 μM [3] | HT-29 cell proliferation at 1.5 μM [3] | effect on HT-29 cell proliferation with concentration [3] | toxicity to normal epithelial cells CCD18CO [4] | level / phosphorylation of PKC-ζ (PKC-ζ [5]) | effect on normal colon epithelial cells CCD18CO (cell number / toxicity) ([6]; 1.0-3.0 μM, three consecutive days, MTT) | percent inhibition of CCD18CO cell growth ([6]; after three hours of MTT incubation) | inhibition of HT-29 cells ([3]; treatment over three days) | effect on PKC-ι (PKC-ι [7]) | level of pro-survival proteins [8]
~780 nM | – | Nc1c(S(=O)(=O)O)cc2cc(S(=O)(=O)O)ccc2c1N [DNDA, 3,4, diamino-2,7-naphthalene disulfonic acid] | about 80% | about 20% | slight decrease in proliferation | dramatic decrease in proliferation | decrease colon cancer cell proliferation in a dose-dependent manner | – | – | – | – | – | – | –
~950 nM | – | NC(=O)c1ncn(C2CC(COP(=O)(O)O)C(O)C2O)c1N (stereo not drawn) [ICA-1, [4-(5-amino-4-carbamoylimidazol-1-yl)-2,3-dihydroxycyclopentyl] methyl dihydrogen phosphate] | – | – | slight increase in cell proliferation | dramatic decrease in cell proliferation | decrease colon cancer cell proliferation in a dose-dependent manner | not toxic | – | – | – | – | – | –
– | ~1400 nM | O=S(=O)(O)c1cc(O)c2c(S(=O)(=O)O)cc(S(=O)(=O)O)cc2c1 [ζ-Stat, 8-hydroxy-1,3,6-naphthalenetrisulfonic acid] | – | – | – | dramatic decrease in cell proliferation | inhibits colon cancer cell proliferation in a dose-dependent manner | not toxic | decrease the levels of total and phosphorylated PKC-ζ; also recorded: selective decrease in the phosphorylation of PKC-ζ | not toxic; also recorded: did not change | less than 10% | about 60% | without affecting PKC-ι; also recorded: specifically inhibits PKC-ζ not PKC-ι | decreases the level of pro-survival proteins
